Measured values reported in US20150071942A1, “COMBINATION THERAPY OF ANTI-MIF ANTIBODIES AND CHEMOTHERAPEUTICS” (Baxter Healthcare SA, priority 2012, published 2015).

How the values were obtained:
[1] = tested on: LnCAP cells; test: Mitoxantrone-dependent cell killing assay (calcein-AM, flow cytometry); format: cell-based, human; conditions: for EC50: Homo sapiens, LNCaP, 48 h, n=10
Description: The single values as well as the mean±standard deviation of 10 independent experiments are shown.
(§1) After 48 hours of incubation cells were detached with Accutase™, labeled with calcein-AM and the level of calcein fluorescence was determined by flow cytometry. The mean fluorescence intensity in the absence of any drug or antibody was set to 1 to normalize for interassay variations. The mean fluorescent intensities were plotted against the mitoxantrone concentration and the half maximum active concentrations of mitoxantrone (EC50-values) were calculated.

[2] = tested on: A2780adr ovarian cancer cells; test: Induction of apoptosis (caspase 3 activity) in doxorubicin-resistant ovarian cancer cells; format: cell-based, human; conditions: agent alone; 72 hours of treatment
Description: The percentage increased caspase 3 activity over non-treated cells is indicated. Cells were treated with a human isotype control IgG (Control IgG), anti-MIF antibody RAM0 or RAM9 alone, a combination of control IgG and doxorubicin (Control IgG+Dox), doxorubicin alone (Dox) or a combination of anti-MIF antibody and doxorubicin (RAM0+Dox or RAM9+Dox).
The induction of apoptosis was assessed by detection of caspase 3 activity after 72 hours of treatment.

[3] = tested on: BxPC3 human pancreatic cancer cells; test: Orthotopic BxPC3 xenograft model for pancreatic cancer in nude mice (survival); format: in vivo; conditions: monotherapy, gemcitabine 100 mg/kg or RAM9 60 mg/kg alone
Description: Control groups were left untreated (left and right panel, dotted black line) or were treated with a control human monoclonal antibody (Control IgG, left panel, solid grey line) or with gemcitabine alone (Gemcitabine, left panel, solid black line). The survival curves represent the points in time when animals had to be sacrificed in accordance with UK Home Office Guidance.
BxPC3 cells are derived from a human pancreatic adenocarcinoma and grow inside the pancreas once they have been injected orthotopically in nude mice and present as a solid tumor. CD1-Foxn1/nu nude mice are orthotopically inoculated with 1×10^6 BxPC3 cells (injection of 30 μl matrigel:tumor cell suspension into the pancreas) and the tumor was allowed to establish for 7 days. […] Additional control groups were left untreated or received a control human IgG1 monoclonal antibody. The growth of internal tumors was judged by external signs (e.g. abdominal distension causing more than 20% increase in normal body weight, or a 20% loss in normal body weight) or clinical signs (e.g. dyspnoea, jaundice, neurological signs, digestive disturbances). Animals reaching the home office limit according to the UK home office guidance were sacrificed (for animal welfare reasons). The resulting survival curve was used as primary outcome of the study.

[4] = tested on: Colo357 human pancreatic cancer cell line; test: Orthotopic Colo357 xenograft model for pancreatic cancer in nude mice (survival, tumor volume, microvessel density); format: in vivo; conditions: monotherapy
Description: Control groups were left untreated or were treated with gemcitabine alone (Gem) or a control human monoclonal antibody alone (Control) or with a control human monoclonal antibody in combination with gemcitabine (Control+Gem). (A) Survival curves representing the points in time when animals had to be sacrificed in accordance with UK Home Office Guidance. (B) Tumor volume was measured in as subset of animals after animals had been sacrificed on day 20 after cell implantation. (C) After treatment, mice bearing a Colo357 xenograft were injected i.v. with the FITC-conjugated tomato lectin to visualize the blood vessels on day 12. Microvessel density was quantified using ImagePro Plus software (Image-Pro plus, Media Cybernetics) and vessel density was expressed as the mean percentage of total surface area.
CD1-Foxn1/nu nude mice are orthotopically inoculated with 1×10^5 Colo357 cells (injection of 30 μl matrigel:tumor cell suspension into the pancreas) and the tumor was allowed to establish for 7 days. […]
We further analyzed […] vessel density in a small cohort of animals. […] Cell nuclei were stained using propidium iodide, and vessels were visualized using confocal microscopy (Zeiss LSM 510 META), and microvessel density was quantified using ImagePro Plus software (Image-Pro plus, Media Cybernetics). Vessel density was expressed as the mean

[5] = tested on: A2780 xenografts; test: A2780 ovarian cancer xenograft in Mf1 nude mice (tumor growth); format: in vivo, human; conditions: monotherapy; RAM0 15 mg/kg every other day or cisplatin once a week
Description: Tumor weights are indicated after treatment of inoculated mice with a human control IgG or with RAM0. Antibodies were applied either alone or in combination with cisplatin.
This effect is of high relevance, in particular if it can also be observed in vivo. This was explored in female Mf1 nude mice inoculated with A2780 xenografts (FIG. 5). Mice (n=10/group) were inoculated with 1*10^6 A2780 cells resuspended in matrigel. […] Cisplatin was administered once a week starting on day 2 after xenograft inoculation.

[6] = tested on: A2780 cells; test: Cisplatin-dependent cell killing assay (calcein-AM, flow cytometry); format: cell-based, human; conditions: in presence of 50 nM RAM0; 48 hours; p<0.01
Description: Data are the means±standard deviation of 9 independent experiments.
as §1, with “blotted” for “plotted”, “cisplatin” for “mitoxantrone”

`O=C1c2c(O)ccc(O)c2C(=O)c2c(NCCNCCO)ccc(NCCNCCO)c21` [mitoxantrone, Mitoxantrone] was tested, and the EC50 ([1]; in presence of 100 nM RAM0) was 0.97 nM, the EC50 ([1]; mitoxantrone alone) was 1.6 nM and the “mean EC50 of mitoxantrone” value ([1]; in presence of 100 nM human isotype control antibody, compared to mitoxantrone alone) was “identical mean EC50”.

In the case of `COc1cccc2c1C(=O)c1c(O)c3c(c(O)c1C2=O)C[C@@](O)(C(=O)CO)C[C@@H]3O[C@H]1C[C@H](N)[C@H](O)[C@H](C)O1` [Doxorubicin, reference compound], the “caspase 3 activity” value [2] is reported as “significant but minor enhanced caspase 3 activity”.

In the case of `Nc1ccn([C@@H]2O[C@H](CO)[C@@H](O)C2(F)F)c(=O)n1` [Gemcitabine, reference compound], the “survival of the xenografted mice” value [3] is reported as “only marginally prolonged the survival”, the “blood vessel density in the tumour microenvironment” value ([4]; day 12, FITC-conjugated tomato lectin) is reported as “Neither gemcitabine nor RAM0 have a significant effect” and the survival ([4]; gemcitabine 100 mg/kg or RAM0 60 mg/kg alone, i.p., Colo357 in nude mice) is reported as “only prolonged survival to a marginal and statistically insignificant extent”.

With `N.N.[Cl][Pt][Cl]` [Cisplatin, reference compound] the tumor growth [5] was “did not have any effect on tumor growth” and the EC50-value of cisplatin [6] was “reduced significantly”.
